Experimental data as given in US5919803A, “3-benzylamino-2-phenylpiperidines as neurokinin antagonists” (Glaxo Group Limited, priority 1995, dated 1999).

System: radiation-induced emesis in the ferret
Experiment: radiation-induced emesis in the ferret
Type: in vivo
Conditions: 0.1 mg/kg s.c., compound administered 1.5 hours prior to irradiation (whole body, 2 Grey)
Method: In this model of emesis the onset of retching and vomiting occurs approximately 20 minutes after whole body irradiation (2 Grey=200 Rads). The test compound is administered (e.g. i.p, p.o., i.v., s.c) immediately after irradiation and its effect on emesis determined by comparison with appropriate controls. […] Alternatively, the test compounds may be administered before irradiation or before treatment with an emetogen, for example 1.5, 3 or 6 hours before irradiation.

CCOc1ccc(-n2nnnc2C(F)(F)F)cc1CN[C@H]1CCCN[C@H]1c1ccccc1.Cl.Cl [Example 1, [2-Ethoxy-5(5-trifluoromethyl-tetrazol-1-yl)-benzyl]-([2S,3S]-2-phenylpiperidine-3-yl)amine dihydrochloride]
inhibition of radiation-induced emesis: inhibited radiation-induced emesis
